Assays:
[1] = biological target: T1, human CB1 receptor (Homo sapiens, UniProt P21554); test: bioSensAll GAPL-Gi2 BRET biosensor assay (antagonism of CP-55,940); format: cell-based; conditions: HEK293 cells transfected with hCB1 and GAPL-Gi2 biosensor, EC75 of CP-55,940 (0.1 nM), overnight incubation, read-out: CB1 wt Gi2 IC50
T1 construct: expressed in transfected cells; host or cells: HEK293
Procedure: (§1) Using polyethylenimine (PEI) transfection agent, HEK293 cells were transfected in suspension with the human CB1 or CB1b receptor and one of the following bioSensAll® assays: GAPL-Gi2, or β-arrestin plasma membrane (PM) translocation biosensor (+GRK2). Cells were directly seeded in 96-well plates immediately following transfection.
(§2) Cells were incubated with coelenterazine (luciferase substrate) and different test compounds prior to the measurement of BRET signals.
i) GAPL sensors are used to monitor the activation of heterotrimeric G proteins at the plasma membrane upon receptor stimulation. Specifically, these multimolecular BRET sensors detect the plasma membrane recruitment of proteins that interact with active Ga subunits in a G protein family-selective manner. G protein activation following receptor stimulation generally leads to an increase in the BRET signal.
(§3) HEK293 cells were maintained in Dulbecco's Modified Eagle Medium (DMEM) (Wisent; cat #319-030-CL: without sodium pyruvate, with 4.5 g/L glucose, without L-glutamine) supplemented with 1% penicillin-streptomycin (Wisent; cat #450-201-EL) and 2 or 10% fetal bovine serum (Wisent cat #090150).
(§4) HEK293 cells were co-transfected with hCB1 or hCB1b and one of the above-listed bioSensAll® assays. For each transfection condition: • the total amount of transfected DNA was kept constant at 1 μg per mL of cell culture to be transfected; whenever necessary, salmon sperm DNA (Invitrogen, cat #15632011) was used as ‘carrier’ DNA to supplement plasmid DNA (i.e., biosensor and receptor); • the PEI (polyethylenimine 25 kDa linear, PolyScience, cat #23966) to DNA ratio (ug:ug) was fixed at 3:1.
(§5) Transfections were carried out as follows: • DNA and PEI were first diluted separately in 150 mM NaCl. The volume of the diluent in each tube corresponds to 5% of the cell culture volume to be transfected. • Once DNA and PEI were diluted, the PEI-containing solution was added to the DNA solution and the DNA/PEI mixture immediately vortexed for 5 seconds. • The DNA/PEI mixture was incubated for at least 20 minutes at room temperature to allow for the formation of DNA/PEI complexes. • During the incubation, HEK293 cells were detached, counted and re-suspended in culture medium (composition specified above). • At the end of the incubation period, the DNA/PEI mixture was added to the cells. • Cells were finally distributed in 96-well plates (White Opaque 96-well/Microplates, Greiner, cat #655083 or CulturPlate-96, White Opaque 96-well Microplate, PerkinElmer, cat #6005688) at a density of 30 000 cells per well.
(§6) At ˜48 hours post-transfection: • Using 450-Select TS Biotek plate washer, culture medium was aspirated and replaced with 100 μl of Hank's Balanced Salt Solution buffer (HBSS) (Wisent, cat #319-067CL: without red phenol; with sodium bicarbonate, with calcium and magnesium, with HEPES) per well. This process was performed a total of two times (i.e., 2 washes). • After the washing step, the HP D300 digital dispenser (Tecan) was used to inject increasing doses (12) of test compounds (ranging from 0-600 nM) to wells. Three to five minutes later, an EC75 of CP-55,940 (0.1 nM for GAPL-Gi2 assay; 100 nM for β-arrestin PM translocation biosensor (+GRK2)) was added to columns 2-12 of each 96-well plate.
(§7) BRET signals were determined by calculating the ratio of light emitted by GFP-acceptor (515 nm) over light emitted by luciferase-donor (400 nm). All BRET ratios were standardized using the equation below with pre-established BRET values for positive and negative controls. The standardized BRET ratio is referred to as universal BRET (uBRET).
(§8) Resulting dose-response curves were fitted using the four-parameter logistic non-linear regression model in GraphPad Prism 9.

[2] = biological target: T1, human CB1 receptor; test: bioSensAll β-arrestin plasma membrane translocation BRET biosensor (+GRK2) assay (antagonism of CP-55,940); format: cell-based; conditions: HEK293 cells transfected with hCB1 and β-arrestin PM translocation biosensor (+GRK2), EC75 of CP-55,940 (100 nM), overnight incubation, read-out: CB1 wt βarr2 IC50
Procedure: as §1, §2
ii) The multimolecular β-arrestin membrane recruitment biosensors allow for real-time spatio-temporal monitoring of β-arrestin 1 and β-arrestin 2 following GPCR activation. Specifically, these β-arrestin sensors were designed to detect the recruitment of proteins to the plasma membrane (β-arrestin PM) with localization to compartment resulting in an increased BRET signal.
as §3, §4, §5, §6, §7, §8

T1 sequence (P21554 whole entry): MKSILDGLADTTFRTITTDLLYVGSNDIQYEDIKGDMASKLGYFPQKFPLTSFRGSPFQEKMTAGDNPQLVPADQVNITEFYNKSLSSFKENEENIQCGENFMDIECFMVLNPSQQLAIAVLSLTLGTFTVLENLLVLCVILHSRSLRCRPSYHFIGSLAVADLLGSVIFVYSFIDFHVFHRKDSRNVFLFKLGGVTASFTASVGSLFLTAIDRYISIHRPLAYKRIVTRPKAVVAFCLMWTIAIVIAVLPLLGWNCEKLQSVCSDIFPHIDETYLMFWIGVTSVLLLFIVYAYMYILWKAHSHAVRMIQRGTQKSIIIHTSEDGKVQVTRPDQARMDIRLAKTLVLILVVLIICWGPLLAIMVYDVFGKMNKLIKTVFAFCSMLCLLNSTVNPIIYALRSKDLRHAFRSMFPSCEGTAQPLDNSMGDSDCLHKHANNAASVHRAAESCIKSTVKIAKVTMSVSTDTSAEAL

SMILES	IC50 [1]	IC50 [2]
CCNC1(C(N)=O)CCN(c2cc(N3CCC[C@H]3CO)nc3c(-c4ccc(Cl)cc4)c(-c4ccccc4Cl)nn23)CC1 [Compound 1, 1-[2-(2-chlorophenyl)-3-(4-chlorophenyl)-5-[(2S)-2-(hydroxymethyl)pyrrolidin-1-yl]pyrazolo[1,5-a]pyrimidin-7-yl]-4-(ethylamino)piperidine-4-carboxamide]	1.2 nM	4.31 nM
OC[C@@H]1CCCN1c1cc(N2CCC(C(F)(F)F)CC2)n2nc(-c3ccccc3Cl)c(-c3ccc(Cl)cc3)c2n1 [Compound 2, [(2S)-1-[2-(2-chlorophenyl)-3-(4-chlorophenyl)-7-[4-(trifluoromethyl)-1-piperidyl]pyrazolo[1,5-a]pyrimidin-5-yl]pyrrolidin-2-yl]methanol]	1.28 nM	5.27 nM
COc1ccccc1-c1nn2c(-c3cccc(C#N)c3)cc(N3CCC[C@H]3CO)nc2c1-c1ccc(Cl)cc1 [Compound 3, 3-[3-(4-chlorophenyl)-5-[(2S)-2-(hydroxymethyl)pyrrolidin-1-yl]-2-(2-methoxyphenyl)pyrazolo[1,5-a]pyrimidin-7-yl]benzonitrile]	1.77 nM	9.94 nM
OC[C@@H]1CCCN1c1cc(-c2ccc(C(F)(F)F)cc2)n2nc(-c3ccccc3Cl)c(-c3ccc(Cl)cc3)c2n1 [Compound 4, [(2S)-1-[2-(2-chlorophenyl)-3-(4-chlorophenyl)-7-[4-(trifluoromethyl)phenyl]pyrazolo[1,5-a]pyrimidin-5-yl]pyrrolidin-2-yl]methanol]	4.04 nM	10.6 nM
COc1ccc(-c2cc(N3CCC[C@H]3CO)nc3c(-c4ccc(Cl)cc4)c(-c4ccccc4Cl)nn23)cc1 [Compound 5, [(2S)-1-[2-(2-chlorophenyl)-3-(4-chlorophenyl)-7-(4-methoxyphenyl)pyrazolo-[1,5-a]pyrimidin-5-yl]pyrrolidin-2-yl]methanol]	3.69 nM	8.6 nM
COc1ccccc1-c1nn2c(-c3ccc(C(F)(F)F)cc3)cc(N3CCC[C@H]3CO)nc2c1-c1ccc(Cl)cc1 [Compound 6, [(2S)-1-[3-(4-chlorophenyl)-2-(2-methoxyphenyl)-7-[4-(trifluoromethyl)phenyl]pyrazolo[1,5-a]pyrimidin-5-yl]-pyrrolidin-2-yl]methanol]	14.1 nM	146 nM
O=S(=O)(N1CCN(c2cc(N3CCC[C@H]3CO)nc3c(-c4ccc(Cl)cc4)c(-c4ccccc4Cl)nn23)CC1)C(F)(F)F [Compound 7, [(2S)-1-[2-(2-chlorophenyl)-3-(4-chlorophenyl)-7-[4-(trifluoromethylsulfonyl)piperazin-1-yl]pyrazolo[1,5-a]pyrimidin-5-yl]pyrrolidin-2-yl]methanol]	1.55 nM	3.31 nM
OC[C@@H]1CCCN1c1cc(-c2ccc(C(F)(F)F)nc2)n2nc(-c3ccccc3Cl)c(-c3ccc(Cl)cc3)c2n1 [Compound 8, [(2S)-1-[2-(2-chlorophenyl)-3-(4-chlorophenyl)-7-[6-(trifluoromethyl)-3-pyridyl]pyrazolo[1,5-a]pyrimidin-5-yl]pyrrolidin-2-yl]methanol]	1.8 nM	4.41 nM
CC1(C(N)=O)CCN(c2cc(N3CCC[C@H]3CO)nc3c(-c4ccc(Cl)cc4)c(-c4ccccc4Cl)nn23)CC1 [Compound 9, 1-[2-(2-chlorophenyl)-3-(4-chlorophenyl)-5-[(2S)-2-(hydroxymethyl)pyrrolidin-1-yl]pyrazolo[1,5-a]pyrimidin-7-yl]-4-methyl-piperidine-4-carboxamide]	0.351 nM	1.84 nM
CN(CCO)c1cc(N2CCC(C)(C(N)=O)CC2)n2nc(-c3ccccc3Cl)c(-c3ccc(Cl)cc3)c2n1 [Compound 10, 1-[2-(2-chlorophenyl)-3-(4-chlorophenyl)-5-[2-hydroxyethyl(methyl)amino]pyrazolo[1,5-a]pyrimidin-7-yl]-4-methyl-piperidine-4-carboxamide]	0.255 nM	1.74 nM
O=S1(=O)CCC(Nc2cc(N3CCC[C@H]3CO)nc3c(-c4ccc(Cl)cc4)c(-c4ccccc4Cl)nn23)CC1 [Compound 11, [(2S)-1-[2-(2-chlorophenyl)-3-(4-chlorophenyl)-7-[(1,1-dioxothian-4-yl)amino]pyrazolo[1,5-a]pyrimidin-5-yl]pyrrolidin-2-yl]methanol]	0.481 nM	1.33 nM
CC(C)Oc1cc(N(C)CCO)nc2c(-c3ccc(Cl)cc3)c(-c3ccccc3Cl)nn12 [Compound 12, 2-[[2-(2-chlorophenyl)-3-(4-chlorophenyl)-7-isopropoxy-pyrazolo[1,5-a]pyrimidin-5-yl]-methyl-amino]ethanol]	1.69 nM	16.8 nM
CC(C)(O)COc1cc(N2CCC(C)(C(N)=O)CC2)n2nc(-c3ccccc3Cl)c(-c3ccc(Cl)cc3)c2n1 [Compound 13, 1-[2-(2-chlorophenyl)-3-(4-chlorophenyl)-5-(2-hydroxy-2-methyl-propoxy)pyrazolo[1,5-a]pyrimidin-7-yl]-4-methyl-piperidine-4-carboxamide]	1.26 nM	3.51 nM
CC(C)(O)COc1cc(N2CCC(C)(O)CC2)n2nc(-c3ccccc3Cl)c(-c3ccc(Cl)cc3)c2n1 [Compound 14, 1-[2-(2-chlorophenyl)-3-(4-chlorophenyl)-5-(2-hydroxy-2-methyl-propoxy)pyrazolo[1,5-a]pyrimidin-7-yl]-4-methyl-piperidin-4-ol]	2.52 nM	9.25 nM
CC(C)(O)COc1cc(N2CCN(S(=O)(=O)C(F)(F)F)CC2)n2nc(-c3ccccc3Cl)c(-c3ccc(Cl)cc3)c2n1 [Compound 15, 1-[2-(2-chlorophenyl)-3-(4-chlorophenyl)-7-[4-(trifluoromethylsulfonyl)piperazin-1-yl]pyrazolo[1,5-a]pyrimidin-5-yl]oxy-2-methyl-propan-2-ol]	3.97 nM	9.55 nM
CC(C)(O)COc1cc(N2CCN(S(C)(=O)=O)CC2)n2nc(-c3ccccc3Cl)c(-c3ccc(Cl)cc3)c2n1 [Compound 16, 1-[2-(2-chlorophenyl)-3-(4-chlorophenyl)-7-(4-methylsulfonylpiperazin-1-yl)pyrazolo[1,5-a]pyrimidin-5-yl]oxy-2-methyl-propan-2-ol]	5.91 nM	13.3 nM
CC(C)(O)COc1cc(N2CCC[C@@H](C(N)=O)C2)n2nc(-c3ccccc3Cl)c(-c3ccc(Cl)cc3)c2n1 [Compound 17(R), 1-[2-(2-chlorophenyl)-3-(4-chlorophenyl)-5-(2-hydroxy-2-methyl-propoxy)pyrazolo[1,5-a]pyrimidin-7-yl]piperidine-3-carboxamide]	17.1 nM	49.8 nM
CC(C)(O)COc1cc(N2CCC[C@H](C(N)=O)C2)n2nc(-c3ccccc3Cl)c(-c3ccc(Cl)cc3)c2n1 [Compound 17(S), (3S)-1-[2-(2-chlorophenyl)-3-(4-chlorophenyl)-5-(2-hydroxy-2-methyl-propoxy)pyrazolo[1,5-a]pyrimidin-7-yl]piperidine-3-carboxamide]	9.09 nM	40.4 nM

Source: patent US20250145628A1, “PYRAZOLOPYRIMIDINES, COMPOSITIONS COMPRISING THEM AND USES THEREOF” (Novo Nordisk A/S, priority 2022, published 2025)
